According to ChEMBL document CHEMBL5724914, “Linking interpersonal differences in gut microbiota composition and drug biotransformation activity” (2024):

What was measured:
[1] = (§1) The drug is tested on Z-026 corresponding to metagenome with ENA study accession number: PRJEB37062 and ENA sample accession number: ERS12561825 for biotransformation under anaerobic condition. The drug concentrations were measured over 9 timepoints collected between 0 and 24 hours of incubation by liquid-chromatography-coupled mass spectrometry (LC–MS); conditions: 2 µM
[2] = human gut metagenome, 24 h, 2 µM
[3] = human gut metagenome, 24 h, 2 µM; remark: listed apart in the source
[4] = (§2) The drug is tested on Z-020 corresponding to rabbit gut metagenome with ENA study accession number: PRJEB37062 and ENA sample accession number: ERS12561819 for biotransformation under anaerobic condition. The drug concentrations were measured over 9 timepoints collected between 0 and 24 hours of incubation by liquid-chromatography-coupled mass spectrometry (LC–MS); conditions: 2 µM
[5] = human gut metagenome, 24 h, 2 µM; remark: listed apart in the source
[6] = human gut metagenome, 24 h, 2 µM; remark: listed apart in the source
[7] = as §2, with “Z-009” for “Z-020”, “pig” for “rabbit”, “ERS12561809” for “ERS12561819”; conditions: 2 µM
[8] = human gut metagenome, 24 h, 2 µM; remark: listed apart in the source
[9] = as §1, with “Z-027” for “Z-026”, “ERS12561826” for “ERS12561825”; conditions: 2 µM
Further: call rule not given here.

Structure (SMILES): CCCC(C)(COC(N)=O)COC(=O)NC(C)C (stereo unspecified) [CARISOPRODOL]
- Bacterial Biotransformation [1]: Compound NOT metabolized
- Bacterial Biotransformation [2]: Compound metabolized
- Bacterial Biotransformation [3]: Compound metabolized
- Bacterial Biotransformation [4]: Compound metabolized
- Bacterial Biotransformation [5]: Compound NOT metabolized
- Bacterial Biotransformation [6]: Compound NOT metabolized
- Bacterial Biotransformation [7]: Compound metabolized
- Bacterial Biotransformation [8]: Compound metabolized
- Bacterial Biotransformation [9]: Compound metabolized

Structure (SMILES): COc1ccccc1OCCNCC(O)COc1cccc2[nH]c3ccccc3c12 (stereo unspecified) [CARVEDILOL]
- Bacterial Biotransformation [1]: Compound NOT metabolized
- Bacterial Biotransformation [2]: Compound NOT metabolized
- Bacterial Biotransformation [3]: Compound metabolized
- Bacterial Biotransformation [4]: Compound NOT metabolized
- Bacterial Biotransformation [5]: Compound metabolized
- Bacterial Biotransformation [6]: Compound metabolized
- Bacterial Biotransformation [7]: Compound NOT metabolized
- Bacterial Biotransformation [8]: Compound metabolized
- Bacterial Biotransformation [9]: Compound NOT metabolized

Structure (SMILES): CN1CCC[C@@H]1CCO[C@](C)(c1ccccc1)c1ccc(Cl)cc1.O=C(O)/C=C/C(=O)O [CLEMASTINE FUMARATE]
- Bacterial Biotransformation [1]: Compound NOT metabolized
- Bacterial Biotransformation [2]: Compound NOT metabolized
- Bacterial Biotransformation [3]: Compound metabolized
- Bacterial Biotransformation [4]: Compound NOT metabolized
- Bacterial Biotransformation [5]: Compound metabolized
- Bacterial Biotransformation [6]: Compound metabolized
- Bacterial Biotransformation [7]: Compound NOT metabolized
- Bacterial Biotransformation [8]: Compound NOT metabolized
- Bacterial Biotransformation [9]: Compound NOT metabolized

Structure (SMILES): CC(C)(C)NCC(O)c1cc(Cl)c(N)c(Cl)c1 (stereo unspecified) [CLENBUTEROL]
- Bacterial Biotransformation [1]: Compound NOT metabolized
- Bacterial Biotransformation [2]: Compound NOT metabolized
- Bacterial Biotransformation [3]: Compound NOT metabolized
- Bacterial Biotransformation [4]: Compound NOT metabolized
- Bacterial Biotransformation [5]: Compound NOT metabolized
- Bacterial Biotransformation [6]: Compound NOT metabolized
- Bacterial Biotransformation [7]: Compound NOT metabolized
- Bacterial Biotransformation [8]: Compound NOT metabolized
- Bacterial Biotransformation [9]: Compound NOT metabolized

Structure (SMILES): C[N+]12CCC(CC1)C(OC(=O)C(O)(c1ccccc1)c1ccccc1)C2.[Br-] (stereo unspecified) [CLIDINIUM BROMIDE]
- Bacterial Biotransformation [1]: Compound NOT metabolized
- Bacterial Biotransformation [2]: Compound NOT metabolized
- Bacterial Biotransformation [3]: Compound NOT metabolized
- Bacterial Biotransformation [4]: Compound NOT metabolized
- Bacterial Biotransformation [5]: Compound metabolized
- Bacterial Biotransformation [6]: Compound metabolized
- Bacterial Biotransformation [7]: Compound metabolized
- Bacterial Biotransformation [8]: Compound metabolized
- Bacterial Biotransformation [9]: Compound NOT metabolized

Structure (SMILES): Clc1cccc(Cl)c1N=C1NCCN1 [CLONIDINE]
- Bacterial Biotransformation [1]: Compound NOT metabolized
- Bacterial Biotransformation [2]: Compound NOT metabolized
- Bacterial Biotransformation [3]: Compound metabolized
- Bacterial Biotransformation [4]: Compound metabolized
- Bacterial Biotransformation [5]: Compound metabolized
- Bacterial Biotransformation [6]: Compound metabolized
- Bacterial Biotransformation [7]: Compound metabolized
- Bacterial Biotransformation [8]: Compound NOT metabolized
- Bacterial Biotransformation [9]: Compound NOT metabolized

Structure (SMILES): COC(=O)[C@H](c1ccccc1Cl)N1CCc2sccc2C1.O=S(=O)(O)O [CLOPIDOGREL BISULFATE]
- Bacterial Biotransformation [1]: Compound metabolized
- Bacterial Biotransformation [2]: Compound metabolized
- Bacterial Biotransformation [3]: Compound metabolized
- Bacterial Biotransformation [4]: Compound metabolized
- Bacterial Biotransformation [5]: Compound metabolized
- Bacterial Biotransformation [6]: Compound metabolized
- Bacterial Biotransformation [7]: Compound metabolized
- Bacterial Biotransformation [8]: Compound metabolized
- Bacterial Biotransformation [9]: Compound metabolized

Structure (SMILES): O=P1(N(CCCl)CCCl)NCCCO1 (stereo unspecified) [CYCLOPHOSPHAMIDE ANHYDROUS]
- Bacterial Biotransformation [1]: Compound NOT metabolized
- Bacterial Biotransformation [2]: Compound metabolized
- Bacterial Biotransformation [3]: Compound metabolized
- Bacterial Biotransformation [4]: Compound NOT metabolized
- Bacterial Biotransformation [5]: Compound metabolized
- Bacterial Biotransformation [6]: Compound metabolized
- Bacterial Biotransformation [7]: Compound metabolized
- Bacterial Biotransformation [8]: Compound NOT metabolized
- Bacterial Biotransformation [9]: Compound NOT metabolized

Structure (SMILES): Br.COc1ccc2c(c1)[C@]13CCCC[C@@H]1[C@H](C2)N(C)CC3.O [DEXTROMETHORPHAN HYDROBROMIDE]
- Bacterial Biotransformation [1]: Compound NOT metabolized
- Bacterial Biotransformation [2]: Compound metabolized
- Bacterial Biotransformation [3]: Compound metabolized
- Bacterial Biotransformation [4]: Compound metabolized
- Bacterial Biotransformation [5]: Compound metabolized
- Bacterial Biotransformation [6]: Compound metabolized
- Bacterial Biotransformation [7]: Compound metabolized
- Bacterial Biotransformation [8]: Compound metabolized
- Bacterial Biotransformation [9]: Compound NOT metabolized

Structure (SMILES): CCN(CC)CCOC(=O)C1(C2CCCCC2)CCCCC1 [DICYCLOMINE]
- Bacterial Biotransformation [1]: Compound NOT metabolized
- Bacterial Biotransformation [2]: Compound NOT metabolized
- Bacterial Biotransformation [3]: Compound metabolized
- Bacterial Biotransformation [4]: Compound NOT metabolized
- Bacterial Biotransformation [5]: Compound metabolized
- Bacterial Biotransformation [6]: Compound metabolized
- Bacterial Biotransformation [7]: Compound metabolized
- Bacterial Biotransformation [8]: Compound NOT metabolized
- Bacterial Biotransformation [9]: Compound NOT metabolized

Structure (SMILES): COc1ccc([C@@H]2Sc3ccccc3N(CCN(C)C)C(=O)[C@@H]2OC(C)=O)cc1 [DILTIAZEM]
- Bacterial Biotransformation [1]: Compound NOT metabolized
- Bacterial Biotransformation [2]: Compound NOT metabolized
- Bacterial Biotransformation [3]: Compound metabolized
- Bacterial Biotransformation [4]: Compound metabolized
- Bacterial Biotransformation [5]: Compound metabolized
- Bacterial Biotransformation [6]: Compound metabolized
- Bacterial Biotransformation [7]: Compound metabolized
- Bacterial Biotransformation [8]: Compound metabolized
- Bacterial Biotransformation [9]: Compound NOT metabolized

Structure (SMILES): OCCN(CCO)c1nc(N2CCCCC2)c2nc(N(CCO)CCO)nc(N3CCCCC3)c2n1 [DIPYRIDAMOLE]
- Bacterial Biotransformation [1]: Compound metabolized
- Bacterial Biotransformation [2]: Compound metabolized
- Bacterial Biotransformation [3]: Compound metabolized
- Bacterial Biotransformation [4]: Compound NOT metabolized
- Bacterial Biotransformation [5]: Compound metabolized
- Bacterial Biotransformation [6]: Compound metabolized
- Bacterial Biotransformation [7]: Compound metabolized
- Bacterial Biotransformation [8]: Compound metabolized
- Bacterial Biotransformation [9]: Compound metabolized

Structure (SMILES): CN(C)CCOC(C)(c1ccccc1)c1ccccn1.O=C(O)CCC(=O)O (stereo unspecified) [DOXYLAMINE SUCCINATE]
- Bacterial Biotransformation [1]: Compound NOT metabolized
- Bacterial Biotransformation [2]: Compound NOT metabolized
- Bacterial Biotransformation [3]: Compound NOT metabolized
- Bacterial Biotransformation [4]: Compound NOT metabolized
- Bacterial Biotransformation [5]: Compound NOT metabolized
- Bacterial Biotransformation [6]: Compound NOT metabolized
- Bacterial Biotransformation [7]: Compound NOT metabolized
- Bacterial Biotransformation [8]: Compound NOT metabolized
- Bacterial Biotransformation [9]: Compound NOT metabolized

Structure (SMILES): Br.CN1CCC[C@@H]1Cc1c[nH]c2ccc(CCS(=O)(=O)c3ccccc3)cc12 [ELETRIPTAN HYDROBROMIDE]
- Bacterial Biotransformation [1]: Compound NOT metabolized
- Bacterial Biotransformation [2]: Compound NOT metabolized
- Bacterial Biotransformation [3]: Compound metabolized
- Bacterial Biotransformation [4]: Compound NOT metabolized
- Bacterial Biotransformation [5]: Compound metabolized
- Bacterial Biotransformation [6]: Compound metabolized
- Bacterial Biotransformation [7]: Compound NOT metabolized
- Bacterial Biotransformation [8]: Compound NOT metabolized
- Bacterial Biotransformation [9]: Compound NOT metabolized

Structure (SMILES): CCOc1ccc2nc(S(N)(=O)=O)sc2c1 [ETHOXZOLAMIDE]
- Bacterial Biotransformation [1]: Compound NOT metabolized
- Bacterial Biotransformation [2]: Compound NOT metabolized
- Bacterial Biotransformation [3]: Compound NOT metabolized
- Bacterial Biotransformation [4]: Compound NOT metabolized
- Bacterial Biotransformation [5]: Compound NOT metabolized
- Bacterial Biotransformation [6]: Compound NOT metabolized
- Bacterial Biotransformation [7]: Compound NOT metabolized
- Bacterial Biotransformation [8]: Compound NOT metabolized
- Bacterial Biotransformation [9]: Compound NOT metabolized

Structure (SMILES): CCc1cccc2c3c([nH]c12)C(CC)(CC(=O)O)OCC3 (stereo unspecified) [ETODOLAC]
- Bacterial Biotransformation [1]: Compound NOT metabolized
- Bacterial Biotransformation [2]: Compound metabolized
- Bacterial Biotransformation [3]: Compound metabolized
- Bacterial Biotransformation [4]: Compound NOT metabolized
- Bacterial Biotransformation [5]: Compound metabolized
- Bacterial Biotransformation [6]: Compound metabolized
- Bacterial Biotransformation [7]: Compound NOT metabolized
- Bacterial Biotransformation [8]: Compound metabolized
- Bacterial Biotransformation [9]: Compound NOT metabolized

Structure (SMILES): CC(=O)OCC(CCn1cnc2cnc(N)nc21)COC(C)=O [FAMCICLOVIR]
- Bacterial Biotransformation [1]: Compound metabolized
- Bacterial Biotransformation [2]: Compound metabolized
- Bacterial Biotransformation [3]: Compound metabolized
- Bacterial Biotransformation [4]: Compound metabolized
- Bacterial Biotransformation [5]: Compound metabolized
- Bacterial Biotransformation [6]: Compound metabolized
- Bacterial Biotransformation [7]: Compound metabolized
- Bacterial Biotransformation [8]: Compound metabolized
- Bacterial Biotransformation [9]: Compound NOT metabolized

Structure (SMILES): CC(C)(C)NC(=O)[C@H]1CC[C@H]2[C@@H]3CC[C@H]4NC(=O)C=C[C@]4(C)[C@H]3CC[C@]12C [FINASTERIDE]
- Bacterial Biotransformation [1]: Compound metabolized
- Bacterial Biotransformation [2]: Compound NOT metabolized
- Bacterial Biotransformation [3]: Compound metabolized
- Bacterial Biotransformation [4]: Compound metabolized
- Bacterial Biotransformation [5]: Compound metabolized
- Bacterial Biotransformation [6]: Compound metabolized
- Bacterial Biotransformation [7]: Compound metabolized
- Bacterial Biotransformation [8]: Compound metabolized
- Bacterial Biotransformation [9]: Compound metabolized

Structure (SMILES): CC1Cc2ccccc2N1NC(=O)c1ccc(Cl)c(S(N)(=O)=O)c1 (stereo unspecified) [INDAPAMIDE]
- Bacterial Biotransformation [1]: Compound NOT metabolized
- Bacterial Biotransformation [2]: Compound NOT metabolized
- Bacterial Biotransformation [3]: Compound NOT metabolized
- Bacterial Biotransformation [4]: Compound NOT metabolized
- Bacterial Biotransformation [5]: Compound NOT metabolized
- Bacterial Biotransformation [6]: Compound NOT metabolized
- Bacterial Biotransformation [7]: Compound NOT metabolized
- Bacterial Biotransformation [8]: Compound NOT metabolized
- Bacterial Biotransformation [9]: Compound NOT metabolized
